From patent US8268821B2, “Methods and compositions” (priority 2003, dated 2012)

System: cancer-related neuropathic pain
Test: Open label dose escalation study of flupirtine, case studies JE and RM
Conditions: RM; ketamine for six days prior to the flupirtine trial

## CNC1(c2ccccc2Cl)CCCCC1=O (stereo not shown) [ketamine]
  pain control: failed to control pain
